# The source made the active and inactive calls. The rule behind the calls is not given here.
# Test system: CCRIS mutagenicity, Ames/micronucleus/aberration tests
# Test: CCRIS mutagenicity studies
# [1] = Test System: AMES SALMONELLA TYPHIMURIUM, Strain/Indicator: TA100, Metabolic Activation: NONE, Method: PREINCUBATION
# [2] = Test System: AMES SALMONELLA TYPHIMURIUM, Strain/Indicator: TA100, Metabolic Activation: NONE, Method: STANDARD PLATE
compound,measurement,setting,value
CNC(=O)CSP(=S)(OC)OC,mutagenic call,"End Point: In vitro chromosomal aberrations, Test System: Human lymphocytes, Metabolic Activation: None",active; positive (structural changes and ploidy)
same,mutagenic call,"Test System: AMES SALMONELLA TYPHIMURIUM, Strain/Indicator: G46, Metabolic Activation: HOST-MEDIATED, Method: STANDARD PLATE",active; positive
same,mutagenic call,"Test System: AMES SALMONELLA TYPHIMURIUM, Strain/Indicator: TA97A, Metabolic Activation: NONE, Method: STANDARD PLATE",inactive; negative
same,mutagenic call,"Test System: AMES SALMONELLA TYPHIMURIUM, Strain/Indicator: TA97A, Metabolic Activation: PLANT, HOMOGENATE, S-14, Method: STANDARD PLATE",inactive; negative
same,mutagenic call,"Test System: AMES SALMONELLA TYPHIMURIUM, Strain/Indicator: TA97A, Metabolic Activation: S-9, Method: STANDARD PLATE",inactive; negative
same,mutagenic call,"Test System: AMES SALMONELLA TYPHIMURIUM, Strain/Indicator: TA98, Metabolic Activation: NONE, Method: STANDARD PLATE",inactive; negative
same,mutagenic call,"Test System: AMES SALMONELLA TYPHIMURIUM, Strain/Indicator: TA98, Metabolic Activation: PLANT, HOMOGENATE, S-14, Method: STANDARD PLATE",inactive; negative
same,mutagenic call,"Test System: AMES SALMONELLA TYPHIMURIUM, Strain/Indicator: TA98, Metabolic Activation: RAT, LIVER, S-9, Method: STANDARD PLATE",inactive; negative
same,mutagenic call,"Test System: AMES SALMONELLA TYPHIMURIUM, Strain/Indicator: TA98, Metabolic Activation: S-9, NADPH GENERATING SYSTEM, Method: STANDARD PLATE",inactive; negative
same,mutagenic call,"Test System: AMES SALMONELLA TYPHIMURIUM, Strain/Indicator: TA98, Metabolic Activation: S-9, Method: STANDARD PLATE",inactive; negative
same,mutagenic call,"Test System: AMES SALMONELLA TYPHIMURIUM, Strain/Indicator: TA98, Metabolic Activation: WHEAT SEEDLING, S-14, Method: STANDARD PLATE",inactive; negative
same,mutagenic call,[1],active; positive
same,mutagenic call,[2],inactive; negative
same,mutagenic call,"Test System: AMES SALMONELLA TYPHIMURIUM, Strain/Indicator: TA100, Metabolic Activation: PLANT, HOMOGENATE, S-14, Method: STANDARD PLATE",inactive; negative
same,mutagenic call,"Test System: AMES SALMONELLA TYPHIMURIUM, Strain/Indicator: TA100, Metabolic Activation: S-9, Method: STANDARD PLATE",inactive; negative
same,mutagenic call,"Test System: AMES SALMONELLA TYPHIMURIUM, Strain/Indicator: TA100, Metabolic Activation: S-9 MIX, Method: STANDARD PLATE",active; positive
same,mutagenic call,"Test System: AMES SALMONELLA TYPHIMURIUM, Strain/Indicator: TA102, Metabolic Activation: NONE, Method: STANDARD PLATE",inactive; negative
same,mutagenic call,"Test System: AMES SALMONELLA TYPHIMURIUM, Strain/Indicator: TA102, Metabolic Activation: RAT, LIVER, S-9, Method: STANDARD PLATE",inactive; negative
same,mutagenic call,"Test System: AMES SALMONELLA TYPHIMURIUM, Strain/Indicator: TA102, Metabolic Activation: S-9, NADPH GENERATING SYSTEM, Method: STANDARD PLATE",inactive; negative
same,mutagenic call,"Test System: AMES SALMONELLA TYPHIMURIUM, Strain/Indicator: TA102, Metabolic Activation: WHEAT SEEDLING, S-14, Method: STANDARD PLATE",inactive; negative
same,mutagenic call,"Test System: AMES SALMONELLA TYPHIMURIUM, Strain/Indicator: TA1535, Metabolic Activation: NONE, Method: STANDARD PLATE",inactive; negative
same,mutagenic call,"Test System: AMES SALMONELLA TYPHIMURIUM, Strain/Indicator: TA1535, Metabolic Activation: PLANT, HOMOGENATE, S-14, Method: STANDARD PLATE",inactive; negative
same,mutagenic call,"Test System: AMES SALMONELLA TYPHIMURIUM, Strain/Indicator: TA1535, Metabolic Activation: RAT, LIVER, S-9, Method: STANDARD PLATE",inactive; negative
same,mutagenic call,"Test System: AMES SALMONELLA TYPHIMURIUM, Strain/Indicator: TA1535, Metabolic Activation: S-9, NADPH GENERATING SYSTEM, Method: STANDARD PLATE",inactive; negative
same,mutagenic call,"Test System: AMES SALMONELLA TYPHIMURIUM, Strain/Indicator: TA1535, Metabolic Activation: S-9, Method: STANDARD PLATE",inactive; negative
same,mutagenic call,"Test System: AMES SALMONELLA TYPHIMURIUM, Strain/Indicator: TA1535, Metabolic Activation: WHEAT SEEDLING, S-14, Method: STANDARD PLATE",inactive; negative
same,mutagenic call,"Test System: AMES SALMONELLA TYPHIMURIUM, Strain/Indicator: TA1537, Metabolic Activation: NONE, Method: STANDARD PLATE",inactive; negative
same,mutagenic call,"Test System: AMES SALMONELLA TYPHIMURIUM, Strain/Indicator: TA1537, Metabolic Activation: S-9, NADPH GENERATING SYSTEM, Method: STANDARD PLATE",inactive; negative
Nc1cccc([N+](=O)[O-])c1N,mutagenic call,"Test System: AMES SALMONELLA TYPHIMURIUM, Strain/Indicator: TA98(NR), Metabolic Activation: NONE, Method: PREINCUBATION",active; positive
same,mutagenic call,"Test System: AMES SALMONELLA TYPHIMURIUM, Strain/Indicator: TA98(NR), Metabolic Activation: RAT, LIVER, S-9, AROCLOR 1254, Method: PREINCUBATION",active; positive
same,mutagenic call,"Test System: AMES SALMONELLA TYPHIMURIUM, Strain/Indicator: TA98, Metabolic Activation: NONE, Method: PREINCUBATION",active; positive
same,mutagenic call,"Test System: AMES SALMONELLA TYPHIMURIUM, Strain/Indicator: TA100(NR), Metabolic Activation: NONE, Method: PREINCUBATION",active; positive
same,mutagenic call,"Test System: AMES SALMONELLA TYPHIMURIUM, Strain/Indicator: TA100(NR), Metabolic Activation: RAT, LIVER, S-9, AROCLOR 1254, Method: PREINCUBATION",active; positive
same,mutagenic call,[1],active; positive
same,mutagenic call,[2],active; positive
same,mutagenic call,"Test System: AMES SALMONELLA TYPHIMURIUM, Strain/Indicator: TA104, Metabolic Activation: NONE, Method: STANDARD PLATE",active; positive
same,mutagenic call,"Test System: AMES SALMONELLA TYPHIMURIUM, Strain/Indicator: TA4001, Metabolic Activation: NONE, Method: STANDARD PLATE",inactive; negative
same,mutagenic call,"Test System: AMES SALMONELLA TYPHIMURIUM, Strain/Indicator: TA4006, Metabolic Activation: NONE, Method: STANDARD PLATE",active; positive
same,mutagenic call,"Test System: AMES SALMONELLA TYPHIMURIUM, Strain/Indicator: TA7001, Metabolic Activation: NONE, Method: STANDARD PLATE",active; positive
same,mutagenic call,"Test System: AMES SALMONELLA TYPHIMURIUM, Strain/Indicator: TA7001, Metabolic Activation: RAT LIVER S-9, AROCLOR 1254, Method: STANDARD PLATE",inactive; negative
same,mutagenic call,"Test System: AMES SALMONELLA TYPHIMURIUM, Strain/Indicator: TA7002, Metabolic Activation: NONE, Method: STANDARD PLATE",active; positive
same,mutagenic call,"Test System: AMES SALMONELLA TYPHIMURIUM, Strain/Indicator: TA7003, Metabolic Activation: NONE, Method: STANDARD PLATE",active; positive
same,mutagenic call,"Test System: AMES SALMONELLA TYPHIMURIUM, Strain/Indicator: TA7003, Metabolic Activation: RAT LIVER S-9, AROCLOR 1254, Method: STANDARD PLATE",inactive; negative
same,mutagenic call,"Test System: AMES SALMONELLA TYPHIMURIUM, Strain/Indicator: TA7004, Metabolic Activation: NONE, Method: STANDARD PLATE",active; positive
same,mutagenic call,"Test System: AMES SALMONELLA TYPHIMURIUM, Strain/Indicator: TA7004, Metabolic Activation: RAT LIVER S-9, AROCLOR 1254, Method: STANDARD PLATE",inactive; negative
same,mutagenic call,"Test System: AMES SALMONELLA TYPHIMURIUM, Strain/Indicator: TA7005, Metabolic Activation: NONE, Method: STANDARD PLATE",active; positive
same,mutagenic call,"Test System: AMES SALMONELLA TYPHIMURIUM, Strain/Indicator: TA7006, Metabolic Activation: NONE, Method: STANDARD PLATE",inactive; negative
same,mutagenic call,"Test System: CHINESE HAMSTER OVARY, Strain/Indicator: CHO-K1-BH4 (HGPRT), Metabolic Activation: NONE, Method: SUSPENSION/PLATE",active; positive
CC\C=C/C=C\C=C/C=C\C=C/OCCC,mutagenic call,[1],active; positive
